One test concerns MCF7. The test can be described thus: Cytotoxicity against human MCF7 cells assessed as reduction in cell viability after 96 hrs by SRB assay. To be noted: MCF7, 96 h. Format: functional, cell-based. (In general: The SRB assay estimates cell density from bound dye.)
A further test relates to SW-1736. The experiment in a line: Cytotoxicity against human SW1736 cells assessed as reduction in cell viability after 96 hrs by SRB assay. The test is classed as functional, cell-based. To be noted: SW-1736, 96 h.
For the next test, the system named is HT-29. The test can be described thus: Cytotoxicity against human HT-29 cells assessed as reduction in cell viability after 96 hrs by SRB assay. To be noted: HT-29, 96 h. The test is classed as functional, cell-based.
Test [1] deals with A2780. The experiment in a line: Cytotoxicity against human A2780 cells assessed as reduction in cell viability after 96 hrs by SRB assay. The test is classed as functional, cell-based. To be noted: A2780, 96 h.
A further test relates to NIH3T3. The experiment in a line: Cytotoxicity against mouse NIH/3T3 cells assessed as reduction in cell viability after 96 hrs by SRB assay. The test is classed as cell-based. To be noted: NIH3T3, 96 h.
Another test deals with FaDu. The experiment in a line: Cytotoxicity against human FADU cells assessed as reduction in cell viability after 96 hrs by SRB assay. Format: functional, cell-based.
The test system of test [2] is A2780. The experiment in a line: Potency index, ratio of betulinic acid EC50 to test compound EC50 for cytotoxicity against human A2780 cells. The test is classed as functional.
The subject of test [3] is A2780. The experiment in a line: Potency index, ratio of hederagenin EC50 to test compound EC50 for cytotoxicity against human A2780 cells. Format: functional.
The subject of test [4] is A2780. The test can be described thus: Potency index, ratio of acetylated hederagenin EC50 to test compound EC50 for cytotoxicity against human A2780 cells. Format: functional.

Some results are limits rather than exact numbers.

For the compound `COC(=O)C(NC(=O)[C@]12CCC(C)(C)C[C@H]1C1=CC[C@@H]3[C@@]4(C)CC[C@H](OC(C)=O)[C@@](C)(COC(C)=O)[C@@H]4CC[C@@]3(C)[C@]1(C)CC2)c1ccccc1` (some centres not stated), the EC50 (in general, the concentration that produces a half-maximal response) in the test on MCF7 was 5.7 µM; with SW-1736 it was 6.3 µM; in the test with HT-29 it was 5.1 µM; in the test with A2780 [1] it was 3.3 µM; in the test on NIH3T3 it was 12.9 µM; in the test on FaDu, 4.6 µM.
For `COC(=O)CNC(=O)[C@]12CCC(C)(C)C[C@H]1C1=CC[C@@H]3[C@@]4(C)CC[C@H](O)[C@@](C)(CO)[C@@H]4CC[C@@]3(C)[C@]1(C)CC2`, the EC50 in the test on SW-1736, in the test on HT-29, in the test with A2780 [1], in the test on NIH3T3 and in the test with FaDu was above 30 µM each time.
For `CC(=O)OC[C@@]1(C)[C@@H]2CC[C@]3(C)[C@H](CC=C4[C@@H]5CC(C)(C)CC[C@]5(C(=O)N5CCCCC5)CC[C@]43C)[C@@]2(C)CC[C@@H]1OC(C)=O`, the EC50 in the test with MCF7 came to 6.2 µM; in the test on SW-1736, 7.1 µM; in the test with HT-29, 5.7 µM; in the test with A2780 [1] it was 2.8 µM; with NIH3T3, 15.2 µM; in the test with FaDu, 5.5 µM.
On to `CC(=O)OC[C@@]1(C)[C@@H]2CC[C@]3(C)[C@H](CC=C4[C@@H]5CC(C)(C)CC[C@]5(C(=O)NCc5cn(Cc6ccccc6Br)nn5)CC[C@]43C)[C@@]2(C)CC[C@@H]1OC(C)=O`, for which the concentration for a half-maximal effect (EC50) amounted to 3 µM with MCF7; 2.3 µM with SW-1736; 1.9 µM in the test on HT-29; 1.7 µM in the test on A2780 [1]; 3.4 µM in the test on NIH3T3; 2.5 µM with FaDu.
For the compound `COC(=O)CNC(=O)[C@]12CCC(C)(C)C[C@H]1C1=CC[C@@H]3[C@@]4(C)CC[C@H](OC(C)=O)[C@@](C)(COC(C)=O)[C@@H]4CC[C@@]3(C)[C@]1(C)CC2`, the EC50 with MCF7 was 4.5 µM; in the test on SW-1736, 4.8 µM; with HT-29, 3.7 µM; with A2780 [1] it was 1.7 µM; with NIH3T3, 8.4 µM; in the test with FaDu, 3.1 µM.
With `CC(=O)OC[C@@]1(C)[C@@H]2CC[C@]3(C)[C@H](CC=C4[C@@H]5CC(C)(C)CC[C@]5(C(=O)NCCCCN)CC[C@]43C)[C@@]2(C)CC[C@@H]1OC(C)=O`, the EC50 in the test with MCF7, in the test with SW-1736, in the test on HT-29, in the test on A2780 [1], with NIH3T3 and in the test with FaDu was above 30 µM throughout.
For the compound `CC(=O)OC[C@@]1(C)[C@@H]2CC[C@]3(C)[C@H](CC=C4[C@@H]5CC(C)(C)CC[C@]5(C(=O)NCc5cn(Cc6ccccc6Cl)nn5)CC[C@]43C)[C@@]2(C)CC[C@@H]1OC(C)=O`, the half-maximal effective concentration (EC50) in the test with MCF7 came to 2.6 µM; in the test with SW-1736, 1.8 µM; in the test on HT-29, 1.7 µM; with A2780 [1], 1.7 µM; in the test with NIH3T3 it was 3.6 µM; with FaDu it was 2.2 µM.
`CC(=O)OC[C@@]1(C)[C@@H]2CC[C@]3(C)[C@H](CC=C4[C@@H]5CC(C)(C)CC[C@]5(C(=O)NCCN5CCCCC5)CC[C@]43C)[C@@]2(C)CC[C@@H]1OC(C)=O`: the EC50 was 3.2 µM with MCF7; 4.7 µM with SW-1736; 2.1 µM with HT-29; 2.1 µM in the test with A2780 [1]; 3.2 µM in the test with NIH3T3; 4.3 µM in the test on FaDu.
In the case of `CC(=O)OC[C@@]1(C)[C@@H]2CC[C@]3(C)[C@H](CC=C4[C@@H]5CC(C)(C)CC[C@]5(C(=O)NCCc5ccccn5)CC[C@]43C)[C@@]2(C)CC[C@@H]1OC(C)=O`, the EC50 with MCF7 came to 3.5 µM; in the test with SW-1736 it was 3.4 µM; with HT-29 it was 3.3 µM; with A2780 [1], 1.5 µM; in the test with NIH3T3, 7.1 µM; in the test with FaDu it was 2.8 µM.
With `CC(=O)OC[C@@]1(C)[C@@H]2CC[C@]3(C)[C@H](CC=C4[C@@H]5CC(C)(C)CC[C@]5(C(=O)NCc5cn(Cc6ccccc6[N+](=O)[O-])nn5)CC[C@]43C)[C@@]2(C)CC[C@@H]1OC(C)=O`, the EC50 is 2.7 µM in the test with MCF7; 3.8 µM with SW-1736; 1.9 µM in the test on HT-29; 1.6 µM with A2780 [1]; 2.1 µM in the test with NIH3T3; 2.8 µM in the test on FaDu.
For `COC(=O)C(NC(=O)[C@]12CCC(C)(C)C[C@H]1C1=CC[C@@H]3[C@@]4(C)CC[C@H](O)[C@@](C)(CO)[C@@H]4CC[C@@]3(C)[C@]1(C)CC2)c1ccccc1` (some centres not stated), the concentration giving a half-maximal response (EC50) in the test with SW-1736, in the test on HT-29, in the test with A2780 [1], with NIH3T3 and in the test with FaDu was above 30 µM in each case.
As for `C=C(C)[C@@H]1CC[C@]2(C(=O)O)CC[C@]3(C)[C@H](CC[C@@H]4[C@@]5(C)CC[C@H](O)C(C)(C)[C@@H]5CC[C@]43C)[C@@H]12` [BETULINIC ACID], the EC50 in the test with MCF7 was determined as 12 µM.
In the case of `CC(=O)OC[C@@]1(C)[C@@H]2CC[C@]3(C)[C@H](CC=C4[C@@H]5CC(C)(C)CC[C@]5(C(=O)NCCN5CCOCC5)CC[C@]43C)[C@@]2(C)CC[C@@H]1OC(C)=O`, the concentration for a half-maximal effect (EC50) with MCF7 was found to be 3.8 µM; with SW-1736 it was 3.9 µM; in the test on HT-29, 2.8 µM; in the test with A2780 [1], 1.2 µM; with NIH3T3, 7.6 µM; with FaDu, 3.3 µM.
Consider `CC(=O)OC[C@@]1(C)[C@@H]2CC[C@]3(C)[C@H](CC=C4[C@@H]5CC(C)(C)CC[C@]5(C(=O)NCc5cn(Cc6ccccc6F)nn5)CC[C@]43C)[C@@]2(C)CC[C@@H]1OC(C)=O`, for which the EC50 turned out to be 2.8 µM in the test on MCF7; 4.7 µM in the test on SW-1736; 3 µM in the test on HT-29; 1.3 µM in the test with A2780 [1]; 6.9 µM in the test on NIH3T3; 2.8 µM with FaDu.
As to `CC(=O)OC[C@@]1(C)[C@@H]2CC[C@]3(C)[C@H](CC=C4[C@@H]5CC(C)(C)CC[C@]5(C(=O)N5CCCC5)CC[C@]43C)[C@@]2(C)CC[C@@H]1OC(C)=O`, the “Ratio EC50” value in the test on A2780 [2] came out at 32; in the test with A2780 [3], 70; with A2780 [4], 29. The concentration for a half-maximal effect (EC50) in the test on MCF7 was found to be 2.5 µM; in the test on SW-1736, 1.7 µM; in the test with HT-29 it was 1.8 µM; with A2780 [1] it was 0.4 µM; in the test on NIH3T3, 9.6 µM; in the test with FaDu, 1.6 µM.
Consider `CC1(C)CC[C@]2(C(=O)N3CCCCC3)CC[C@]3(C)C(=CC[C@@H]4[C@@]5(C)CC[C@H](O)[C@@](C)(CO)[C@@H]5CC[C@]43C)[C@@H]2C1`, for which the EC50 in the test with MCF7 worked out at 7.8 µM; in the test with SW-1736 it was 19.2 µM; in the test on HT-29, 18.3 µM; with A2780 [1] it was 18.2 µM; in the test on NIH3T3, 18.5 µM; in the test with FaDu it was 20.8 µM.
As to `CC1(C)CC[C@]2(C(=O)O)CC[C@]3(C)C(=CC[C@@H]4[C@@]5(C)CC[C@H](O)[C@@](C)(CO)[C@@H]5CC[C@]43C)[C@@H]2C1` [HEDERAGENIN], the EC50 with MCF7, in the test with SW-1736, in the test with HT-29, in the test on A2780 [1], in the test on NIH3T3 and with FaDu was above 30 µM each time.
In the case of `CC(=O)OC[C@@]1(C)[C@@H]2CC[C@]3(C)[C@H](CC=C4[C@@H]5CC(C)(C)CC[C@]5(C(=O)O)CC[C@]43C)[C@@]2(C)CC[C@@H]1OC(C)=O`, the concentration giving a half-maximal response (EC50) stood at 9.8 µM in the test on MCF7; 17.7 µM with SW-1736; 19 µM in the test on HT-29; 11.9 µM in the test with A2780 [1]; 9.6 µM in the test on NIH3T3; 15.4 µM in the test on FaDu.
In the case of `CC1(C)CC[C@]2(C(=O)NCCCCN)CC[C@]3(C)C(=CC[C@@H]4[C@@]5(C)CC[C@H](O)[C@@](C)(CO)[C@@H]5CC[C@]43C)[C@@H]2C1`, the EC50 with MCF7 is above 30 µM; with SW-1736, 12.2 µM; in the test on HT-29, 6.1 µM; with A2780 [1], 9.7 µM; in the test on NIH3T3 it was 7 µM; in the test with FaDu, above 30 µM.
On to `CC(=O)OC[C@@]1(C)[C@@H]2CC[C@]3(C)[C@H](CC=C4[C@@H]5CC(C)(C)CC[C@]5(C(=O)N5CCNCC5)CC[C@]43C)[C@@]2(C)CC[C@@H]1OC(C)=O`, for which the EC50 with MCF7 came to 6.1 µM; in the test on SW-1736, 9 µM; with HT-29 it was 6.7 µM; with A2780 [1], 1.9 µM; in the test with NIH3T3, 10.8 µM; with FaDu it was 5.3 µM.
`CC(=O)OC[C@@]1(C)[C@@H]2CC[C@]3(C)[C@H](CC=C4[C@@H]5CC(C)(C)CC[C@]5(C(=O)NCCN5CCCC5)CC[C@]43C)[C@@]2(C)CC[C@@H]1OC(C)=O`: the EC50 in the test with MCF7 amounted to 2.6 µM; in the test with SW-1736, 3.6 µM; in the test with HT-29, 1.5 µM; in the test on A2780 [1], 1.9 µM; in the test on NIH3T3, 2.2 µM; with FaDu, 4 µM.
As to `CC1(C)CC[C@]2(C(=O)N3CCNCC3)CC[C@]3(C)C(=CC[C@@H]4[C@@]5(C)CC[C@H](O)[C@@](C)(CO)[C@@H]5CC[C@]43C)[C@@H]2C1`, the concentration for a half-maximal effect (EC50) was above 30 µM in the test with SW-1736; 22.5 µM in the test with HT-29; 19.4 µM in the test on A2780 [1]; 17.4 µM in the test on NIH3T3; above 30 µM in the test on FaDu.

(Values after ChEMBL document CHEMBL4340520, “Hederagenin amide derivatives as potential antiproliferative agents” (Eur J Med Chem, 2019).)
